Measurements as given in PubChem BioAssay (NCI).
Several values for one entry are separate records, joined by “and”; a condition that tells them apart may be missing. Equal entries are not always repeated.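 Five concentrations, 48 hours, 96-well plates. GI50: concentration for 50% inhibition of growth. TGI: concentration producing complete growth inhibition.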

What was measured:
Assay in all cases: growth of human tumour cells (NCI), 48 h
BT-549 breast = tested on: BT-549 breast
MCF7 breast = tested on: MCF7 breast
MDA-MB-231 breast = tested on: MDA-MB-231 breast
NCI/ADR-RES ovarian = tested on: NCI/ADR-RES ovarian
T-47D breast = tested on: T-47D breast

Structure (SMILES)	GI50 (BT-549 breast) [µM]	TGI (BT-549 breast) [µM]	GI50 (MCF7 breast) [µM]	TGI (MCF7 breast)	GI50 (MDA-MB-231 breast) [µM]	TGI (MDA-MB-231 breast)	GI50 (NCI/ADR-RES ovarian) [µM]	TGI (NCI/ADR-RES ovarian)	GI50 (T-47D breast) [µM]	TGI (T-47D breast)
Cn1c(-c2c(N)n(Cc3ccc(Cl)cc3)c3nc(C#N)c(C#N)nc23)nc2ccccc21	6.44	15.6	3.94	> 50 µM	1.69	9.41 µM	2.36	10.8 µM	1.83	14.5 µM
O=c1c2ccccc2c(C=NCCNCCO)c2oc3ccccc3n12					11.5	24.4 µM	13.8	26.7 µM	4.12	17.9 µM
CCCCCCCCOC(=O)c1cc(O)c(O)c(O)c1	2.08	14.2	4.14	26.7 µM	12.1	63.1 µM	1.52	10.2 µM	2.61	21.8 µM
COc1ccc(S(=O)(=O)N2CCCCC2)cc1NC(=O)c1[nH]c(C)c2c1CCCCC2=O	4	> 100	0.666	> 100 µM	0.718	> 100 µM	3.67	> 100 µM	1.41	46.9 µM
COc1cc2c(c(OC)c1OC)C(=O)c1c-2n(CCCN)c(=O)c2cc([N+](=O)[O-])ccc12	1.76	3.53	0.25		1.8	4 µM	2.03	9.98 µM	2.48	6.91 µM
CC(C)NCCCNC1=C(Cl)C(=O)c2ccccc2C1=O	5.36	18.2	4.13	17.5 µM	4.08	18.3 µM	12	28.6 µM	8.02	33.8 µM
Cc1ccc2nc(NC(=O)CSC(=S)N3CCN(Cc4ccccc4)CC3)sc2c1	> 100	> 100	64.5	> 100 µM	> 100	> 100 µM	> 100	> 100 µM	72.3	> 100 µM
CC(=O)OC1C(O)COC(Oc2c(C)c3c4c(c2O)[C@@H](C)CC[C@@H]4[C@@H](C)C[C@H]3C=C(C)C)C1O (stereo partly drawn)			17.2	> 100 µM			15.4	32.5 µM	39.4	> 100 µM
O=C1c2ccccc2C(=O)c2c1c(NCCNCCO)c1cc[nH]c1c2NCCNCCO	2.75	8.94	1.35		4.15	18.9 µM	> 100	> 100 µM	11.8	> 46.5 µM
CCN(CCc1ccc(F)cc1)c1ccc(CO)c(Cl)c1	11.4	23.8	4.72	19.9 µM	11.4	24.4 µM	11.8	28.1 µM	1.39	12.7 µM
COc1ccc(-n2nc(C)c3c(Nc4ccc(NC(=O)Nc5cc(C(F)(F)F)ccc5F)cc4)ncnc32)cc1	2.49	7.67	2.69	14.7 µM	1.61	3.55 µM	2.93	11.9 µM	2.57	8.72 µM
CC(=O)OC1CC(C)c2c1ncnc2N1CCN(C(=O)OC(C)(C)C)CC1 (stereo not drawn)	61	> 100	39.1	> 100 µM	42.8	> 100 µM	67.6	> 100 µM	54	> 100 µM
c1ccc(CN2CCC3(CC2)ONC2=NCCN23)cc1	> 100	> 100	71.3	> 100 µM	> 100	> 100 µM	18.2	> 100 µM	> 100	> 100 µM
CCOc1ccc2c(-c3ccnc(Nc4cccc(C(F)(F)F)c4)n3)cnn2n1	> 23.8	> 25	0.979	> 12.2 µM	14.7	> 25 µM	9.04	> 25 µM	1.4	> 25 µM
CC(=O)c1ccc(NCn2nc(-c3ccccc3O)oc2=S)cc1	56.2	> 100	> 100	> 100 µM	37.6	> 100 µM	> 100	> 100 µM	85.9	> 100 µM
CCCCCn1ncc(-c2c(O)c(O)cc3c(O)c(-c4c(C)cc5c(-c6cnn(CCCCC)n6)c(O)c(O)cc5c4O)c(C)cc23)n1	0.0913	5.09	0.0874	4.24 µM	0.182	5.67 µM	0.903	5.32 µM	0.0627	1.42 µM
O=C(/C=C/c1ccccc1)c1ccc(O)c(CN2CCN(c3cc4c(cc3F)c(=O)c(C(=O)O)cn4C3CC3)CC2)c1	0.989	26.3	0.688	> 100 µM	1.94	7.65 µM	7.86	> 100 µM	1.77	> 100 µM
CN(C)c1ccc2c(SCC(=O)OCC(=O)[C@@]3(O)CC[C@H]4[C@@H]5CCC6=CC(=O)C=C[C@]6(C)[C@H]5C(=O)C[C@@]43C)c3ccc(N(C)C)cc3nc2c1		> 49.5		> 100 µM		> 93.8 µM				> 100 µM
COc1ccc(-c2ccc(=O)oc2-c2cc(OC)c(OC)c(OC)c2)cc1O	0.0919	> 100	< 0.01	> 100 µM	0.0613	> 100 µM	0.036	> 100 µM	> 100	> 100 µM
COc1cc2c(cc1OCCN1C(=O)c3cccc4cccc(c34)C1=O)N=C[C@@H]1CCCN1C2=O		16.9	13.6	18.2 µM and > 100 µM	> 100	14.6 µM and > 100 µM	22.5	45.8 µM and 56.3 µM	18.9	28.2 µM and > 100 µM
Cc1cc2cc(Oc3ccnc(Nc4cccc(CS(=O)(=O)NCCN(C)C)c4)n3)ccc2[nH]1	5.03	18.1	4.03	18.4 µM	4.61	17.2 µM	17.9	43.6 µM	4.93	22.7 µM
